The CheMixHub viscosity set

Assay: xn = mol fraction of the nth substance listed

CCCC(C)O (centres undefined) + COC(C)(C)C
viscosity [mPa·s], 100 kPa
Conditions | x2 = 0.0811 | x2 = 0.1599 | x2 = 0.24 | x2 = 0.3501 | x2 = 0.44 | x2 = 0.56 | x2 = 0.65 | x2 = 0.74 | x2 = 0.8499 | x2 = 0.94
293.15 K | 2.815 | 1.943 | 1.344 | 0.97 | 0.774 | 0.621 | 0.546 | 0.496 | 0.436 | 0.39
298.15 K | 2.359 | 1.633 | 1.134 | 0.823 | 0.666 | 0.546 | 0.488 | 0.441 | 0.39 | 0.355
303.15 K | 1.994 | 1.378 | 0.98 | 0.705 | 0.574 | 0.474 | 0.424 | 0.39 | 0.35 | 0.321
308.15 K | 1.682 | 1.181 | 0.868 | 0.617 | 0.493 | 0.407 | 0.37 | 0.341 | 0.313 | 0.292
313.15 K | 1.419 | 1.001 | 0.728 | 0.514 | 0.407 | 0.337 | 0.313 | 0.296 | 0.275 | 0.263
318.15 K | 1.208 | 0.849 | 0.613 | 0.412 | 0.326 | 0.275 | 0.255 | 0.243 | 0.234 | 0.231
323.15 K | 1.032 | 0.744 | 0.524 | 0.345 | 0.268 | 0.226 | 0.211 | 0.2 | 0.197 | 0.2

CCCC(C)O (centres undefined) + COc1ccccc1
viscosity [mPa·s], 101.33 kPa
Conditions | x2 = 0.1007 | x2 = 0.2007 | x2 = 0.3001 | x2 = 0.4004 | x2 = 0.5005 | x2 = 0.5991 | x2 = 0.6973 | x2 = 0.798 | x2 = 0.897
303.15 K | 2.097 | 1.59 | 1.279 | 1.095 | 0.998 | 0.951 | 0.931 | 0.924 | 0.919
313.15 K | 1.557 | 1.234 | 1.025 | 0.903 | 0.845 | 0.823 | 0.816 | 0.811 | 0.801
323.15 K | 1.202 | 1.014 | 0.887 | 0.803 | 0.753 | 0.725 | 0.711 | 0.704 | 0.697

CC[N+](CC)(CC)CC.[OH-] + CS(C)=O
viscosity [mPa·s], 100 kPa
Conditions | 298.15 K | 303.15 K | 308.15 K | 313.15 K
x1 = 0.0142 | 2.08 | 1.9 | 1.77 | 1.67
x1 = 0.0405 | 2.24 | 2.07 | 1.96 | 1.88
x1 = 0.0693 | 2.45 | 2.29 | 2.18 | 2.09
x1 = 0.0995 | 2.65 | 2.49 | 2.38 | 2.29
x1 = 0.1314 | 2.89 | 2.72 | 2.62 | 2.52
x1 = 0.165 | 3.11 | 2.95 | 2.84 | 2.76
x1 = 0.1925 | 3.29 | 3.12 | 3 | 2.92
x1 = 0.2381 | 3.57 | 3.41 | 3.3 | 3.24
x1 = 0.2988 | 3.9 | 3.75 | 3.66 | 3.58
x1 = 0.3654 | 4.23 | 4.1 | 4 | 3.95
x1 = 0.4134 | 4.45 | 4.34 | 4.22 | 4.18
x1 = 0.4647 | 4.66 | 4.56 | 4.45 | 4.41
x1 = 0.5486 | 4.94 | 4.85 | 4.73 | 4.71
x1 = 0.6421 | 5.17 | 5.08 | 4.96 | 4.92
x1 = 0.7106 | 5.37 | 5.17 | 5.02 | 5
x1 = 0.7848 | 5.3 | 5.2 | 5.03 | 4.99
x1 = 0.8653 | 5.23 | 5.12 | 4.96 | 4.89
x1 = 0.9531 | 5.08 | 4.89 | 4.67 | 4.54

C[Si](C)(C)O[Si](C)(C)O[Si](C)(C)O[Si](C)(C)O[Si](C)(C)O[Si](C)(C)C + C[Si](C)(C)O[Si](C)(C)O[Si](C)(C)O[Si](C)(C)C
Conditions | viscosity [mPa·s]
298.15 K, 101 kPa, x1 = 0.413 | 1.738

CCCCBr + Cc1cc(C)cc(C)c1
308.15 K, 101 kPa
Conditions | viscosity [mPa·s]
x2 = 0.0991 | 0.5234
x2 = 0.1968 | 0.5242
x2 = 0.3043 | 0.5299
x2 = 0.406 | 0.5323
x2 = 0.4969 | 0.5372
x2 = 0.5975 | 0.5416
x2 = 0.7014 | 0.5482
x2 = 0.7972 | 0.5513
x2 = 0.8984 | 0.5568
